The record followed here is paper doi:10.1101/2023.10.20.563248v1 (biorxiv, 2023).

In one assay the target is DYRK3 (Homo sapiens, UniProt O43781). The following applies: 1 µM; inhibitor.
The target in another assay is SIK2 (Homo sapiens, UniProt Q9H0K1). The following applies: 1 µM; inhibitor.
For another assay, the target named is NEK6 (Homo sapiens, UniProt Q9HC98). The conditions noted are these: 1 µM; inhibitor.
The target of the next assay is ACVR2A (Homo sapiens, UniProt P27037). The conditions noted are these: 1 µM; inhibitor.
The target in a further assay is MAPKAPK3 (Homo sapiens, UniProt Q16644). The following applies: 1 µM; inhibitor.
A further assay has as its target CDK2/CycA2 (Homo sapiens, UniProt P24941). The conditions noted are these: 1 µM; inhibitor.
For the next assay, the target named is ITK (Homo sapiens, UniProt Q08881). The following applies: 1 µM; inhibitor.
Another assay concerns the target HRI (Homo sapiens, UniProt Q9BQI3). The conditions noted are these: 1 µM; inhibitor.
In the next assay the target is MELK (Homo sapiens, UniProt Q14680). The conditions noted are these: 1 µM; inhibitor.
The target of a further assay is MEKK3 (Homo sapiens, UniProt Q99759). The conditions noted are these: 1 µM; inhibitor.
The next assay addresses TTK (Homo sapiens, UniProt P33981). The following applies: 1 µM; inhibitor.
For a further assay, the target named is FLT4 (Homo sapiens, UniProt P35916). The conditions noted are these: 1 µM; inhibitor.
In a further assay the target is CDK9 (Homo sapiens, UniProt P50750). The following applies: 1 µM; inhibitor.
For another assay, the target named is MARK1 (Homo sapiens, UniProt Q9P0L2). The following applies: 1 µM; inhibitor.
In a further assay the target is JNK1 (Homo sapiens, UniProt P45983). The following applies: 1 µM; inhibitor.
A further assay concerns the target CDC42BPB (Homo sapiens, UniProt Q9Y5S2). The conditions noted are these: 1 µM; inhibitor.
For a further assay, the target named is RPS6KA2 (Homo sapiens, UniProt Q15349). The following applies: 1 µM; inhibitor.
The next assay addresses NEK11 (Homo sapiens, UniProt Q8NG66). The conditions noted are these: 1 µM; inhibitor.
A further assay deals with WEE1 (Homo sapiens, UniProt P30291). The conditions noted are these: 1 µM; inhibitor.
For a further assay, the target named is CDK10 (Homo sapiens, UniProt Q15131). The following applies: 1 µM; inhibitor.
A further assay deals with MST1 (Homo sapiens, UniProt Q13043). The following applies: 1 µM; inhibitor.
The next assay deals with MEKK2 (Homo sapiens, UniProt Q9Y2U5). The following applies: 1 µM; inhibitor.
The next assay addresses GRK6 (Homo sapiens, UniProt P43250). The conditions noted are these: 1 µM; inhibitor.
A further assay concerns the target LIMK1 (Homo sapiens, UniProt P53667). Kind of assay: NanoBRET tracer displacement, HEK293T. It counts as cell-based. The conditions noted are these: intact cells; […] °C, […] h; competitive with tracer. In general terms: BRET reads energy transfer from a luciferase to a nearby fluorophore.

MAPKAPK3, sequence (Q16644 whole entry): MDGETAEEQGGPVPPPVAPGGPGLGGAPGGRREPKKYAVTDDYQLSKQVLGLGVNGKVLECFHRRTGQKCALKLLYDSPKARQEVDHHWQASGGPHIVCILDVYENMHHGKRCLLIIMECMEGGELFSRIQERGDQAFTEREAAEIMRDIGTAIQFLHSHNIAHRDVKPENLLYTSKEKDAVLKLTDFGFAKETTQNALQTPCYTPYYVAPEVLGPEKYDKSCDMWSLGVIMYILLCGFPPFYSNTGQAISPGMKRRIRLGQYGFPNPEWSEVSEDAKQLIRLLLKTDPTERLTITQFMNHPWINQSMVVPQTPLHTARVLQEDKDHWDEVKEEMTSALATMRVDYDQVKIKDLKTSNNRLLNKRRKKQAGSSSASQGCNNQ
TTK, sequence (P33981 whole entry): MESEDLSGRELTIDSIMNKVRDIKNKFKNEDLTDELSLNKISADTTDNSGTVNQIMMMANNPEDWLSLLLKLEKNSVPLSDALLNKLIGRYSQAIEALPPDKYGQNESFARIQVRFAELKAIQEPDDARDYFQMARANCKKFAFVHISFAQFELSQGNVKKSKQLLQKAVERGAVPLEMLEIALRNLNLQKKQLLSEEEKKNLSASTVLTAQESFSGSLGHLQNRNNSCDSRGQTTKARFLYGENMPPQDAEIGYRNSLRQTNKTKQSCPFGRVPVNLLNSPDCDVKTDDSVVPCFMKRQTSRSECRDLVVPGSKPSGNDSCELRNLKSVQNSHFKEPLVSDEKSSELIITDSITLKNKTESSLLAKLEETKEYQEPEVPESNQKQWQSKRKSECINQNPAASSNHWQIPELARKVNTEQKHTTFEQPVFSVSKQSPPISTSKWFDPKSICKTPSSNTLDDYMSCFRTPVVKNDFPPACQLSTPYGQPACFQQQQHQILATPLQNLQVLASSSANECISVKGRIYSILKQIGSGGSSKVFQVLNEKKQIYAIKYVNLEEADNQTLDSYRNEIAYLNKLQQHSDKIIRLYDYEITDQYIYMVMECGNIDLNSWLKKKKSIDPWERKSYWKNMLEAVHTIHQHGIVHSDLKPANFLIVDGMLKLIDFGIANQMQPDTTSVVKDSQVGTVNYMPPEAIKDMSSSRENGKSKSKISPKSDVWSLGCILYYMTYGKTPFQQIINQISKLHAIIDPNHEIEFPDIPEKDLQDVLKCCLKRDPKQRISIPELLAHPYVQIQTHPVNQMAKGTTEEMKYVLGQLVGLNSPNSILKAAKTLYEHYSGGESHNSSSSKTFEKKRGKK
JNK1, sequence (P45983 whole entry): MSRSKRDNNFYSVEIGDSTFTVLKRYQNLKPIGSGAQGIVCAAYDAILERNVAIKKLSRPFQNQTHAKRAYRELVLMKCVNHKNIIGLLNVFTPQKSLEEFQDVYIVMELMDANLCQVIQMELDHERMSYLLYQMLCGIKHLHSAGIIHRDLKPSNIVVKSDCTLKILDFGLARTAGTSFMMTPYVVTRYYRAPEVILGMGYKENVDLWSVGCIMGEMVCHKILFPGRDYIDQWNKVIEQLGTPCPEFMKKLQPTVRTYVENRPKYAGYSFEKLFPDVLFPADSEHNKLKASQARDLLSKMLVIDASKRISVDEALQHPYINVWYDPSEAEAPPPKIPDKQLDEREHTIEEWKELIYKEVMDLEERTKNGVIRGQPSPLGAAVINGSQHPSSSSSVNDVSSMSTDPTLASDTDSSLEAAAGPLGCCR
DYRK3, sequence (O43781 whole entry): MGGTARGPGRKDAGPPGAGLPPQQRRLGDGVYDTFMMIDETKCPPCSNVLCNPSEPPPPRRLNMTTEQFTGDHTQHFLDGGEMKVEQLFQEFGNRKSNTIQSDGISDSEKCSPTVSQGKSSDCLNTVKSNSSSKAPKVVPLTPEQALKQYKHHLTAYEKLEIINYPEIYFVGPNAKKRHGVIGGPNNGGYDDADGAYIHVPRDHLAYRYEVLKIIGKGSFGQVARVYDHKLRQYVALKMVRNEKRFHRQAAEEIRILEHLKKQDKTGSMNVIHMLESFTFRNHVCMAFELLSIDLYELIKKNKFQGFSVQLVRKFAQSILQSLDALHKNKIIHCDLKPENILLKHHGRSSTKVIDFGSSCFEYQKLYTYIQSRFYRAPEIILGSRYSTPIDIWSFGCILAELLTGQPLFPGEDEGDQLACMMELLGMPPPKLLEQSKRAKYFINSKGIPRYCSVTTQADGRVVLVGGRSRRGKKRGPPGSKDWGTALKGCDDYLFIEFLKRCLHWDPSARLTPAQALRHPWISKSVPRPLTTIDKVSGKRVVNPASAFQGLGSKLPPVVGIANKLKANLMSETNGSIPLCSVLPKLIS
ACVR2A, sequence (P27037 whole entry): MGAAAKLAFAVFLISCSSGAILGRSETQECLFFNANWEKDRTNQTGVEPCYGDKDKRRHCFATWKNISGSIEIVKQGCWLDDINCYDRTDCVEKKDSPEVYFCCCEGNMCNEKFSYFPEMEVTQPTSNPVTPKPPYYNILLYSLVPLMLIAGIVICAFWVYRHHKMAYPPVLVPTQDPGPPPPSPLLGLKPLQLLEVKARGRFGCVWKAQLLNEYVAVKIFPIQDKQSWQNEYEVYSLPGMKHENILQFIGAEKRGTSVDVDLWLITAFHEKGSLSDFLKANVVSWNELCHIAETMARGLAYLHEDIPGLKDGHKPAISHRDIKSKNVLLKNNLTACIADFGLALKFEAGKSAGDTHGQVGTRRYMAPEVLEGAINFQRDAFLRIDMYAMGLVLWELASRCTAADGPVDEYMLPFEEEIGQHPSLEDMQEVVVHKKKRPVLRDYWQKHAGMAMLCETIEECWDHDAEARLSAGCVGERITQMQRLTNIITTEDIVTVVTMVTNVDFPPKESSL
SIK2, sequence (Q9H0K1 whole entry): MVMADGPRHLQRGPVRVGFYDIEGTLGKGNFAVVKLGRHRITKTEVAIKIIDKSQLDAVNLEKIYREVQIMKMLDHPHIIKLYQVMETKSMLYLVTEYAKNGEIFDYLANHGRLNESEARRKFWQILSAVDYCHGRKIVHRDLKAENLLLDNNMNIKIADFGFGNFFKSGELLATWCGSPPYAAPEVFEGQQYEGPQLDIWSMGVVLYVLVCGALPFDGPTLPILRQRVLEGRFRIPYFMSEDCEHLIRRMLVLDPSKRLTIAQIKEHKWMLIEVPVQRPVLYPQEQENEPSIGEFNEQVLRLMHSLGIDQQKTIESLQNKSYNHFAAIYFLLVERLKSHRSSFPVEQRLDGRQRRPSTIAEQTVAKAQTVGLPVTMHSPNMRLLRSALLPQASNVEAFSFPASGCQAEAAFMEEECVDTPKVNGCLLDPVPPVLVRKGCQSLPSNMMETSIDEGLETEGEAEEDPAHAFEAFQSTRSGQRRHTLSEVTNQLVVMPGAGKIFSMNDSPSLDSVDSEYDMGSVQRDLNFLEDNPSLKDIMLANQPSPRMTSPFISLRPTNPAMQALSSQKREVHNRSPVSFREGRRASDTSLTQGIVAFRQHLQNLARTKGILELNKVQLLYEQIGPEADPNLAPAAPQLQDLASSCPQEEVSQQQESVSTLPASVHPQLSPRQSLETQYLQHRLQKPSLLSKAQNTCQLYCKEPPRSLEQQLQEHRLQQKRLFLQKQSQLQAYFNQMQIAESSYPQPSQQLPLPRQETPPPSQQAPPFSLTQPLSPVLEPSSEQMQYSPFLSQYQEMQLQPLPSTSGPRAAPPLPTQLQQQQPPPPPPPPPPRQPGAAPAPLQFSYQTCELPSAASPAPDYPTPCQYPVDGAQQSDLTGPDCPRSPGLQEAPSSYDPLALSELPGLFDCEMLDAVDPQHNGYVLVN
LIMK1, sequence (P53667 whole entry): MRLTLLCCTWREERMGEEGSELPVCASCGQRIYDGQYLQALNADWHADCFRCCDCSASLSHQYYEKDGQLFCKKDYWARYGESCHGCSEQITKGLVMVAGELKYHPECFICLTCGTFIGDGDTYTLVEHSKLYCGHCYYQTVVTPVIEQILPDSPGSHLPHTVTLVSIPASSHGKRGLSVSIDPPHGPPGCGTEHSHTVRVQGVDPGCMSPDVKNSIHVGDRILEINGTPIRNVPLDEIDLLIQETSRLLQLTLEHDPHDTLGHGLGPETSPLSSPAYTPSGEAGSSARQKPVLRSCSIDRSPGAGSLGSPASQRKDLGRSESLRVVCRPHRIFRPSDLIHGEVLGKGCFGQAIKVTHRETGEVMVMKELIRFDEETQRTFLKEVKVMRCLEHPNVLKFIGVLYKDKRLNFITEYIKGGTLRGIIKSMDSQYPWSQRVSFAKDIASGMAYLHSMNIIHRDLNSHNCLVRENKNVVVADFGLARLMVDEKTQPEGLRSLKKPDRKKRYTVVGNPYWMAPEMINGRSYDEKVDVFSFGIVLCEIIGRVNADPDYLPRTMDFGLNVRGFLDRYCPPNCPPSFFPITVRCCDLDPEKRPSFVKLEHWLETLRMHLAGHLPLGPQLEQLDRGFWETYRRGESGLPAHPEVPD
HRI, sequence (Q9BQI3 whole entry): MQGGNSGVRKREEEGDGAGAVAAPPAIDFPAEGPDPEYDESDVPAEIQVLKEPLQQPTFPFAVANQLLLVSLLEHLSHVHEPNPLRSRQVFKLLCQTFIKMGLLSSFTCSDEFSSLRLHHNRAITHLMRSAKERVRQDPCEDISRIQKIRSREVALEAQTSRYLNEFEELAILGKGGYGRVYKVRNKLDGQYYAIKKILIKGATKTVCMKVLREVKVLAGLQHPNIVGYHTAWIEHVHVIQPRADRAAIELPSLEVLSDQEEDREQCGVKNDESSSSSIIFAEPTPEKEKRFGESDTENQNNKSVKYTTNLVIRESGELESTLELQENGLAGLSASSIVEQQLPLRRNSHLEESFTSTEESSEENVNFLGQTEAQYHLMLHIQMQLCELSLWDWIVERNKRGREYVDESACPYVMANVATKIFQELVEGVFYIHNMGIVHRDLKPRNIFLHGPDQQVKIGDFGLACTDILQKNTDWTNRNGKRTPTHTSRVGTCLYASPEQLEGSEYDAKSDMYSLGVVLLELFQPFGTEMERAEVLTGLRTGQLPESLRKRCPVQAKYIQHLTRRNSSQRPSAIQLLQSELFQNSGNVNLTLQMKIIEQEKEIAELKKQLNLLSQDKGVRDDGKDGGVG

For the molecule `O=C1NCCCCCNc2nc(c3ccccc3n2)Nc2cc1[nH]n2` [21c, (Z)-3^1H-2,5,11-triaza-1(4,2)-quinazolina-3(3,5)-pyrazolacycloundecaphan-4-one], the “21c Remaining activity, percent of control [%]” value amounted to 96.4% at DYRK3; 97.5% on SIK2; 89.5% on NEK6; 95.3% at ACVR2A; 95.7% on MAPKAPK3; 106.1% at CDK2/CycA2. Moreover, the “21c Remaining activity, percent of control [%]” value at ITK is recorded as 99.7%; at HRI, 98.2%; at MELK, 47.0%; at MEKK3, 105.8%; at TTK it was 97.7%; on FLT4 it was 93.9%. The “21c Remaining activity, percent of control [%]” value on CDK9 worked out at 83.3%; on MARK1, 96.0%; at JNK1 it was 95.6%; at CDC42BPB, 106.6%; on RPS6KA2 it was 84.0%; at NEK11 it was 93.3%. Also, the “21c Remaining activity, percent of control [%]” value came to 88.0% on WEE1; 85.1% on CDK10; 105.6% on MST1; 103.5% on MEKK2; 87.6% at GRK6. The same molecule yielded an EC50 at LIMK1 of 5.67 ± 1.02 µM.

As a reminder, the EC50 is the concentration at which the effect is half-maximal.
